From ChEMBL document CHEMBL2069290, “Synthesis and biological evaluation of novel oxindole derivatives for imaging neurofibrillary tangles in Alzheimer's disease” (Bioorg Med Chem Lett, 2012)
One block for each compound: values may come before it.

Experiments:
[1] = biological target: Microtubule-associated protein tau (Homo sapiens, UniProt P10636); experiment: Binding affinity to human Tau aggregates after 30 mins by Thioflavin-S-based fluorescence assay
[2] = biological target: Amyloid-beta precursor protein (Homo sapiens, UniProt P05067); experiment: Binding affinity to amyloid beta(1 to 42) aggregates after 30 mins by Thioflavin-S-based fluorescence assay
Homo sapiens [3] = organism: Homo sapiens; experiment: Selectivity ratio of Ki for amyloid beta(1 to 42) to Ki for human Tau
Brain [4] = experiment: Ratio of drug uptake in ddY mouse brain after 2 mins to drug uptake in ddY mouse brain after 30 mins; type: ADME, tissue-based; settings: in vivo
Blood [5] = experiment: Biodistribution in ddY mouse blood at 3.3 to 6.7 kBq, iv after 2 mins by gamma counting; type: ADME, organism-based; settings: in vivo
Blood [6] = experiment: Biodistribution in ddY mouse blood at 3.3 to 6.7 kBq, iv after 10 mins by gamma counting; type: ADME, organism-based; settings: in vivo
Blood [7] = experiment: Biodistribution in ddY mouse blood at 3.3 to 6.7 kBq, iv after 30 mins by gamma counting; type: ADME, organism-based; settings: in vivo, 0.5 h
Blood [8] = experiment: Biodistribution in ddY mouse blood at 3.3 to 6.7 kBq, iv after 60 mins by gamma counting; type: ADME, organism-based; settings: in vivo, 1 h
Liver [9] = experiment: Biodistribution in ddY mouse liver at 3.3 to 6.7 kBq, iv after 2 mins by gamma counting; type: ADME, organism-based; settings: in vivo
Liver [10] = experiment: Biodistribution in ddY mouse liver at 3.3 to 6.7 kBq, iv after 10 mins by gamma counting; type: ADME, organism-based; settings: in vivo
Liver [11] = experiment: Biodistribution in ddY mouse liver at 3.3 to 6.7 kBq, iv after 30 mins by gamma counting; type: ADME, organism-based; settings: in vivo, 0.5 h
Liver [12] = experiment: Biodistribution in ddY mouse liver at 3.3 to 6.7 kBq, iv after 60 mins by gamma counting; type: ADME, organism-based; settings: in vivo, 1 h
Kidney [13] = experiment: Biodistribution in ddY mouse kidney at 3.3 to 6.7 kBq, iv after 2 mins by gamma counting; type: ADME, organism-based; settings: in vivo
Kidney [14] = experiment: Biodistribution in ddY mouse kidney at 3.3 to 6.7 kBq, iv after 10 mins by gamma counting; type: ADME, organism-based; settings: in vivo
Kidney [15] = experiment: Biodistribution in ddY mouse kidney at 3.3 to 6.7 kBq, iv after 30 mins by gamma counting; type: ADME, organism-based; settings: in vivo, 0.5 h
Kidney [16] = experiment: Biodistribution in ddY mouse kidney at 3.3 to 6.7 kBq, iv after 60 mins by gamma counting; type: ADME, organism-based; settings: in vivo, 1 h
Intestine [17] = experiment: Biodistribution in ddY mouse intestine at 3.3 to 6.7 kBq, iv after 2 mins by gamma counting; type: ADME, organism-based; settings: in vivo
Intestine [18] = experiment: Biodistribution in ddY mouse intestine at 3.3 to 6.7 kBq, iv after 10 mins by gamma counting; type: ADME, organism-based; settings: in vivo
Intestine [19] = experiment: Biodistribution in ddY mouse intestine at 3.3 to 6.7 kBq, iv after 30 mins by gamma counting; type: ADME, organism-based; settings: in vivo, 0.5 h
Intestine [20] = experiment: Biodistribution in ddY mouse intestine at 3.3 to 6.7 kBq, iv after 60 mins by gamma counting; type: ADME, organism-based; settings: in vivo, 1 h
Spleen [21] = experiment: Biodistribution in ddY mouse spleen at 3.3 to 6.7 kBq, iv after 2 mins by gamma counting; type: ADME, organism-based; settings: in vivo
Spleen [22] = experiment: Biodistribution in ddY mouse spleen at 3.3 to 6.7 kBq, iv after 10 mins by gamma counting; type: ADME, organism-based; settings: in vivo
Spleen [23] = experiment: Biodistribution in ddY mouse spleen at 3.3 to 6.7 kBq, iv after 30 mins by gamma counting; type: ADME, organism-based; settings: in vivo, 0.5 h
Spleen [24] = experiment: Biodistribution in ddY mouse spleen at 3.3 to 6.7 kBq, iv after 60 mins by gamma counting; type: ADME, organism-based; settings: in vivo, 1 h
Pancreas [25] = experiment: Biodistribution in ddY mouse pancreas at 3.3 to 6.7 kBq, iv after 2 mins by gamma counting; type: ADME, organism-based; settings: in vivo
Pancreas [26] = experiment: Biodistribution in ddY mouse pancreas at 3.3 to 6.7 kBq, iv after 10 mins by gamma counting; type: ADME, organism-based; settings: in vivo
Pancreas [27] = experiment: Biodistribution in ddY mouse pancreas at 3.3 to 6.7 kBq, iv after 30 mins by gamma counting; type: ADME, organism-based; settings: in vivo, 0.5 h
Pancreas [28] = experiment: Biodistribution in ddY mouse pancreas at 3.3 to 6.7 kBq, iv after 60 mins by gamma counting; type: ADME, organism-based; settings: in vivo, 1 h
Heart [29] = experiment: Biodistribution in ddY mouse heart at 3.3 to 6.7 kBq, iv after 2 mins by gamma counting; type: ADME, organism-based; settings: in vivo
Heart [30] = experiment: Biodistribution in ddY mouse heart at 3.3 to 6.7 kBq, iv after 10 mins by gamma counting; type: ADME, organism-based; settings: in vivo
Heart [31] = experiment: Biodistribution in ddY mouse heart at 3.3 to 6.7 kBq, iv after 30 mins by gamma counting; type: ADME, organism-based; settings: in vivo, 0.5 h
Heart [32] = experiment: Biodistribution in ddY mouse heart at 3.3 to 6.7 kBq, iv after 60 mins by gamma counting; type: ADME, organism-based; settings: in vivo, 1 h
Stomach [33] = experiment: Biodistribution in ddY mouse stomach assessed per organ at 3.3 to 6.7 kBq, iv after 2 mins by gamma counting; type: ADME, organism-based; settings: in vivo
Stomach [34] = experiment: Biodistribution in ddY mouse stomach assessed per organ at 3.3 to 6.7 kBq, iv after 10 mins by gamma counting; type: ADME, organism-based; settings: in vivo
Stomach [35] = experiment: Biodistribution in ddY mouse stomach assessed per organ at 3.3 to 6.7 kBq, iv after 30 mins by gamma counting; type: ADME, organism-based; settings: in vivo, 0.5 h
Stomach [36] = experiment: Biodistribution in ddY mouse stomach assessed per organ at 3.3 to 6.7 kBq, iv after 60 mins by gamma counting; type: ADME, organism-based; settings: in vivo, 1 h
Brain [37] = experiment: Biodistribution in ddY mouse brain at 3.3 to 6.7 kBq, iv after 2 mins by gamma counting; type: ADME, organism-based; settings: in vivo
Brain [38] = experiment: Biodistribution in ddY mouse brain at 3.3 to 6.7 kBq, iv after 10 mins by gamma counting; type: ADME, organism-based; settings: in vivo
Brain [39] = experiment: Biodistribution in ddY mouse brain at 3.3 to 6.7 kBq, iv after 30 mins by gamma counting; type: ADME, organism-based; settings: in vivo, 0.5 h
Brain [40] = experiment: Biodistribution in ddY mouse brain at 3.3 to 6.7 kBq, iv after 60 mins by gamma counting; type: ADME, organism-based; settings: in vivo, 1 h
Homo sapiens [41] = organism: Homo sapiens; experiment: Selectivity ratio of EC50 for amyloid beta(1 to 42) to EC50 for human Tau

Chain of Amyloid-beta precursor protein (P05067 whole entry): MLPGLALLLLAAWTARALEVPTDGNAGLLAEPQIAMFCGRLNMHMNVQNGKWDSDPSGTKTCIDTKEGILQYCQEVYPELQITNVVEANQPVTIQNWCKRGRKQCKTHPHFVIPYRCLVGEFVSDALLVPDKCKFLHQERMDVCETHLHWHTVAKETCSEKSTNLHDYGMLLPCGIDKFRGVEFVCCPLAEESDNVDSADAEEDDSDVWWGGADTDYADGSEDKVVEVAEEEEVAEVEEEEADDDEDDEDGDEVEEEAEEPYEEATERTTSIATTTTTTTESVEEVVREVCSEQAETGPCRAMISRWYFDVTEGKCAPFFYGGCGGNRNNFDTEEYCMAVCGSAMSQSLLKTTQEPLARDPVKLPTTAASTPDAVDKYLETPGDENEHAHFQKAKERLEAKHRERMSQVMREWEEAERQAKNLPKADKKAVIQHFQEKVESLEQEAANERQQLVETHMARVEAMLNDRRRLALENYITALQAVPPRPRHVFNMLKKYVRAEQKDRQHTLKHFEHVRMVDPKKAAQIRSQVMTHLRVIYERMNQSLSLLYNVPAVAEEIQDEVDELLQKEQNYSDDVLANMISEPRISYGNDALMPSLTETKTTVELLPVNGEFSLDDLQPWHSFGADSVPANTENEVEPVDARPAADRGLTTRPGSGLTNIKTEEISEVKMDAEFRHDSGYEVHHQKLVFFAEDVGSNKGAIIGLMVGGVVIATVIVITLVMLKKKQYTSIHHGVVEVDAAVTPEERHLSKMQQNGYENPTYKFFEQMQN
Chain of Microtubule-associated protein tau (P10636 whole entry): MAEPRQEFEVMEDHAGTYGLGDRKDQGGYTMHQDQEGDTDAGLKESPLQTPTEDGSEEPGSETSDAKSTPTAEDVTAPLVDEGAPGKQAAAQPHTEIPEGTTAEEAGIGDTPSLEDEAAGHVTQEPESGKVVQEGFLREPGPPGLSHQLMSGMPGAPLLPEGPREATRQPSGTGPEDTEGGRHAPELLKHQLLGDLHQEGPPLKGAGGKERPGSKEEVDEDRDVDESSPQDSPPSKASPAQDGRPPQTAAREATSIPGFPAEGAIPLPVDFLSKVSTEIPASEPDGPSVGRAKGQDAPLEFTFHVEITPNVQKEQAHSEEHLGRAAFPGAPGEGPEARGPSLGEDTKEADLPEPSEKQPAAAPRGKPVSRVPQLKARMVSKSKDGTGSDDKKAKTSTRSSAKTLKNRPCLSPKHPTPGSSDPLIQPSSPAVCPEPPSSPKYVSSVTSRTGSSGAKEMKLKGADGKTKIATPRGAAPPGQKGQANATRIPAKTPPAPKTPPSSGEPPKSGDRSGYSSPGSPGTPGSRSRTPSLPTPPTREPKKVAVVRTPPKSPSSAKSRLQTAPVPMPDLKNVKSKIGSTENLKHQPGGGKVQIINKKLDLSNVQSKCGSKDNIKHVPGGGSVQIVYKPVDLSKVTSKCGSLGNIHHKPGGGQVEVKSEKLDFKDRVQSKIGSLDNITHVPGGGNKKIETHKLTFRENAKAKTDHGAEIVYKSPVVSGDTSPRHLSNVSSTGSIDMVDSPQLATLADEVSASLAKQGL

- Ki [1]: 0.599 µM
- Ki [2]: 4.67 µM
- Ratio Ki (Homo sapiens [3]): 7.8
SMILES: CN(C)c1ccc(C=C2C(=O)Nc3ccc(I)cc32)cc1

- Ratio Ki (Homo sapiens [3]): 7.33
SMILES: O=C1/C(=C/c2ccc(-c3cccc(I)c3)o2)NC(=S)N1CCc1c[nH]cn1

- Ratio (Brain [4]): 3.65
SMILES: [11CH3]Nc1ccc(-c2ccc3ccccc3n2)cc1

- Drug uptake (Blood [5]): 1.77 % ID/g
- Drug uptake (Blood [6]): 1.64 % ID/g
- Drug uptake (Blood [7]): 1.07 % ID/g
- Drug uptake (Blood [8]): 0.69 % ID/g
- Drug uptake (Liver [9]): 12.37 % ID/g
- Drug uptake (Liver [10]): 10.56 % ID/g
- Drug uptake (Liver [11]): 9.43 % ID/g
- Drug uptake (Liver [12]): 6.89 % ID/g
- Drug uptake (Kidney [13]): 9.63 % ID/g
- Drug uptake (Kidney [14]): 5.04 % ID/g
- Drug uptake (Kidney [15]): 3.83 % ID/g
- Drug uptake (Kidney [16]): 2.51 % ID/g
- Drug uptake (Intestine [17]): 1.57 % ID/g
- Drug uptake (Intestine [18]): 2.54 % ID/g
- Drug uptake (Intestine [19]): 8.33 % ID/g
- Drug uptake (Intestine [20]): 12.11 % ID/g
- Drug uptake (Spleen [21]): 3.66 % ID/g
- Drug uptake (Spleen [22]): 3.37 % ID/g
- Drug uptake (Spleen [23]): 1.2 % ID/g
- Drug uptake (Spleen [24]): 0.66 % ID/g
- Drug uptake (Pancreas [25]): 5.08 % ID/g
- Drug uptake (Pancreas [26]): 3.19 % ID/g
- Drug uptake (Pancreas [27]): 1.76 % ID/g
- Drug uptake (Pancreas [28]): 0.6 % ID/g
- Drug uptake (Heart [29]): 10.17 % ID/g
- Drug uptake (Heart [30]): 2.53 % ID/g
- Drug uptake (Heart [31]): 1.3 % ID/g
- Drug uptake (Heart [32]): 0.61 % ID/g
- Drug uptake (Stomach [33]): 0.91 %ID
- Drug uptake (Stomach [34]): 1.64 %ID
- Drug uptake (Stomach [35]): 3.52 %ID
- Drug uptake (Stomach [36]): 3.57 %ID
- Drug uptake (Brain [37]): 2.47 % ID/g
- Drug uptake (Brain [38]): 2.1 % ID/g
- Drug uptake (Brain [39]): 1.43 % ID/g
- Drug uptake (Brain [40]): 0.44 % ID/g
- Ratio (Brain [4]): 1.7
SMILES: CN(C)c1ccc(C=C2C(=O)Nc3ccc([125I])cc32)cc1

- Drug uptake (Blood [5]): 7.5 % ID/g
- Drug uptake (Blood [6]): 4.97 % ID/g
- Drug uptake (Blood [7]): 3.3 % ID/g
- Drug uptake (Blood [8]): 1.95 % ID/g
- Drug uptake (Liver [9]): 9.51 % ID/g
- Drug uptake (Liver [10]): 12.4 % ID/g
- Drug uptake (Liver [11]): 11.59 % ID/g
- Drug uptake (Liver [12]): 6.26 % ID/g
- Drug uptake (Kidney [13]): 13.48 % ID/g
- Drug uptake (Kidney [14]): 18.16 % ID/g
- Drug uptake (Kidney [15]): 19.35 % ID/g
- Drug uptake (Kidney [16]): 10.01 % ID/g
- Drug uptake (Intestine [17]): 2.29 % ID/g
- Drug uptake (Intestine [18]): 4.24 % ID/g
- Drug uptake (Intestine [19]): 7.55 % ID/g
- Drug uptake (Intestine [20]): 9.86 % ID/g
- Drug uptake (Spleen [21]): 6.97 % ID/g
- Drug uptake (Spleen [22]): 9.67 % ID/g
- Drug uptake (Spleen [23]): 14.05 % ID/g
- Drug uptake (Spleen [24]): 7.75 % ID/g
- Drug uptake (Pancreas [25]): 5.43 % ID/g
- Drug uptake (Pancreas [26]): 2.95 % ID/g
- Drug uptake (Pancreas [27]): 2.25 % ID/g
- Drug uptake (Pancreas [28]): 1.4 % ID/g
- Drug uptake (Heart [29]): 8.52 % ID/g
- Drug uptake (Heart [30]): 5.36 % ID/g
- Drug uptake (Heart [31]): 6.32 % ID/g
- Drug uptake (Heart [32]): 2.65 % ID/g
- Drug uptake (Stomach [33]): 0.77 %ID
- Drug uptake (Stomach [34]): 1.7 %ID
- Drug uptake (Stomach [35]): 2.96 %ID
- Drug uptake (Stomach [36]): 2.92 %ID
- Drug uptake (Brain [37]): 2.45 % ID/g
- Drug uptake (Brain [38]): 1.75 % ID/g
- Drug uptake (Brain [39]): 0.74 % ID/g
- Drug uptake (Brain [40]): 0.23 % ID/g
- Ratio (Brain [4]): 3.31
SMILES: CNc1ccc(/C=C2\Nc3ccc([125I])cc3C2=O)cc1

- Ki [1]: 0.112 µM
- Ki [2]: 0.116 µM
- Ratio Ki (Homo sapiens [3]): 1.03
SMILES: CNc1ccc(/C=C2\Nc3ccc(I)cc3C2=O)cc1

- Ratio EC50 (Homo sapiens [41]): 1.65
SMILES: CNc1ccc(-c2ccc3ccccc3n2)cc1
